Test results reported in article PMC7717570, “Deciphering the enzymatic target of a new family of antischistosomal agents bearing a quinazoline scaffold using complementary computational tools” (Journal of Enzyme Inhibition and Medicinal Chemistry, 2020).
Where two headings read alike, the source gives them in different places.

Experiments:
[1] = Microsomal stability, mouse liver microsomes (S9), Phase-I (CYP450-NADPH); type: in vitro ADME; conditions: 5 µM
Description: (§1) Mouse or human liver microsomes (S9), reduced nicotinamide adenine dinucleotide phosphate (NADPH) generating system solutions and uridine glucuronosyltransferase (UGT) reaction mix (BD Biosciences) were kept at −80 °C. The test compounds and reference compound diclofenac were formulated in DMSO at […]. The assay was carried out based on the BD Biosciences Guidelines for Use (TF000017 Rev1.0) with minor adaptations. The metabolic stability of the compounds was studied through the CYP450 superfamily (Phase-I metabolism) by fortification with NADPH and through UGT enzymes (Phase-II metabolism) by fortification with uridine diphosphate glucuronic acid (UDPGA). For CYP450 and other NADPH dependent enzymes, the compounds were incubated at 5 µM together with 0.5 mg/mL S9 in potassium phosphate buffer in a reaction started by the addition of 1 mM NADP. At defined time points, 20 µL was withdrawn from the reaction mixture and 80 µL cold acetonitrile (ACN) was added to inactivate the enzymes and precipitate the protein. The mixture was vortexed for 30 s and centrifuged at 4 °C for 5 min to collect the supernatant. For UGT enzymes, the compounds were incubated at 5 µM together with 0.5 mg/mL S9 in a reaction started by the addition of 2 mM UDPGA cofactor. The loss of parent compound was determined using liquid chromatography (UPLC) (Waters Aquity^TM) coupled with tandem quadrupole mass spectrometry (MS^2) (Waters Xevo^TM), equipped with an electrospray ionisation (ESI) interface and operated in multiple reaction monitoring (MRM) mode.

[2] = test system: Schistosoma mansoni mature worms; experiment: In vitro S. mansoni worm killing; parameters: key to Worm killing (male worms) / Worm killing (female worms): % worm mortality = dead worms / total worms × 100; conditions: for killing at 5 µM / killing at 10 µM / killing at 25 µM / killing at 50 µM / killing at 100 µM / EC50: Schistosoma mansoni; for killing at 5 µM / killing at 10 µM / killing at 25 µM / killing at 50 µM / killing at 100 µM: 120 h, read-out: Worm killing (% of total); for Worm killing (female worms) / Worm killing (male worms): day 5
Description: The percentage reduction of worm or egg burden in each treated group was calculated. […] Results are expressed as mean ± SEM. A two-tailed, unpaired Student’s t-test was used to detect the significance of difference between the means of different groups. […] Stock solutions of 5 mM PZQ and the quinazoline derivatives 2–13 were prepared in DMSO. Concentrations of 100 µM, 50 µM, 25 µM, 10 µM and 5 µM were freshly prepared on the day of experiment in RPMI-1640 medium. All compounds were initially tested at 100 and 50 µM; those showing worm killing were further tested at 25, 10 and 5 µM. Worms were obtained from SBSC of TBRI. Six to eight worms were placed in 12-well tissue culture plates and fresh RPMI-1640 medium (supplemented with glutamine, 20% newborn calf serum and streptomycin, penicillin, and gentamicin), containing the indicated concentration of the test compound was added[20]^,[21]. Worms were incubated overnight in a CO2 incubator at 37 °C. On the 2nd day, worms were examined by microscopy, washed three times with normal saline, fresh medium was added and the incubation was continued. On the 3rd day, worm motility was observed and on the 4th day, medium was changed again. On day 5 (end of the observation period), worms were microscopically examined for their motility and appearance. Each concentration was tested in duplicate, and the final recording of percent worm mortality was determined as the number of dead worms [contracted and opaque] divided by the total number of worms × 100. Negative controls used medium without additions or medium with 2% DMSO; positive control media containing identical concentrations of PZQ were tested in parallel.

[3] = test system: Schistosoma mansoni worm couples; experiment: S. mansoni ovipositing capacity and coupling; conditions: for inhibition at 5 µM / inhibition at 10 µM / inhibition at 25 µM / inhibition at 50 µM / inhibition at 100 µM: Schistosoma mansoni, 120 h, read-out: Reduction in number of eggs (%)
Description: Stock solutions of 5 mM PZQ and the quinazoline derivatives 2–13 were prepared in DMSO. Concentrations of 100 µM, 50 µM, 25 µM, 10 µM and 5 µM were freshly prepared on the day of experiment in RPMI-1640 medium. All compounds were initially tested at 100 and 50 µM; those showing worm killing were further tested at 25, 10 and 5 µM. 12-well tissue culture plates were used, each well containing 6–8 worms with at least one worm couple. Worms were incubated overnight in a CO2 incubator at 37 °C. Each concentration was tested in duplicate wells. On day 4, eggs were counted and discarded and the medium was changed. On day 5 (end of observation period) newly deposited eggs were counted. The final egg number is the total count of days 4 and 5 for each concentration tested and the final recording of the percentage of egg reduction was determined as [the total number of eggs on days 4 and 5 of control – the total number of eggs on days 4 and 5 of treated]/the total number of eggs on days 4 and 5 of control × 100.

[4] = Microsomal stability, human liver microsomes (S9), Phase-II (UGT enzymes); type: in vitro ADME; conditions: 5 µM
Description: as §1

[5] = Microsomal stability, human liver microsomes (S9), Phase-I (CYP450-NADPH); type: in vitro ADME; conditions: 5 µM
Description: as §1

[6] = Microsomal stability, mouse liver microsomes (S9), Phase-II (UGT enzymes); type: in vitro ADME; conditions: 5 µM
Description: as §1

[7] = 5 µM, day 5, mature (6 weeks old) worms, dose-titration (Table 3)
[8] = 10 µM, day 5, mature (6 weeks old) worms, dose-titration (Table 3)
[9] = 25 µM, day 5, mature (6 weeks old) worms, dose-titration (Table 3)
[10] = 50 µM, day 5, initial test (Table 2)
[11] = 50 µM, day 5, mature (6 weeks old) worms, dose-titration (Table 3)
[12] = 100 µM, day 5, initial test (Table 2)
[13] = 100 µM, day 5, mature (6 weeks old) worms, dose-titration (Table 3)
[14] = males and females together, read-out: EC50 (worm killing)
[15] = read-out: EC50 (worm killing, female worms)
[16] = read-out: EC50 (worm killing, male worms)
[17] = 10 µM, dose-titration (Table 3)
[18] = 25 µM, dose-titration (Table 3)
[19] = 50 µM, dose-titration (Table 3)
[20] = 100 µM, dose-titration (Table 3)

## COc1cc2c(=O)n(Cc3ccc(F)cc3)c(=O)n(Cc3ccc(C(F)(F)F)cc3)c2cc1OC [compound 10, 3-(4-Fluorobenzyl)-1-(4-(trifluoromethyl)benzyl)-6,7-dimethoxyquinazolin-2,4(1H,3H)-dione]
[1]; 0 h
  % Parent compound remaining upon incubation: 100%
[1]; 0.25 h
  % Parent compound remaining upon incubation: 85%
[1]; 0.5 h
  % Parent compound remaining upon incubation: 39%
[1]; 1 h
  % Parent compound remaining upon incubation: 32%
[2]; [7]
  killing at 5 µM: 0%
[2]; [8]
  killing at 10 µM: 8%
[2]; [9]
  killing at 25 µM: 50%
[2]; [10]
  killing at 50 µM: 93%
[2]; [11]
  killing at 50 µM: 100%
[2]; [12]
  killing at 100 µM: 100%
[2]; [13]
  killing at 100 µM: 100%
[2]; [14]
  EC50: 25 µM
[2]; [15]
  EC50: 26 µM
[2]; [16]
  EC50: 20 µM
[2]; 5 µM
  Worm killing (female worms): 0
  Worm killing (male worms): 0
[2]; 10 µM
  Worm killing (female worms): 0
  Worm killing (male worms): 14
[2]; 25 µM
  Worm killing (female worms): 33
  Worm killing (male worms): 63
[2]; 50 µM
  Worm killing (female worms): 100
  Worm killing (male worms): 100
[2]; 100 µM
  Worm killing (female worms): 100
  Worm killing (male worms): 100
[3]; 5 µM, dose-titration (Table 3)
  Uncoupling: No
  inhibition at 5 µM: 77%
[3]; [17]
  Uncoupling: No
  inhibition at 10 µM: 80%
[3]; [18]
  Uncoupling: Yes
  inhibition at 25 µM: 100%
[3]; [19]
  Uncoupling: Yes
[3]; 50 µM, initial test (Table 2)
  Uncoupling: Yes
  inhibition at 50 µM: 100%
[3]; [20]
  Uncoupling: Yes
[3]; 100 µM, initial test (Table 2)
  Uncoupling: Yes
  inhibition at 100 µM: 100%
[4]; 0 h
  % Parent compound remaining upon incubation: 100%
[4]; 0.25 h
  % Parent compound remaining upon incubation: 102%
[4]; 0.5 h
  % Parent compound remaining upon incubation: 106%
[4]; 1 h
  % Parent compound remaining upon incubation: 98%
[5]; 0 h
  % Parent compound remaining upon incubation: 100%
[5]; 0.25 h
  % Parent compound remaining upon incubation: 108%
[5]; 0.5 h
  % Parent compound remaining upon incubation: 83%
[5]; 1 h
  % Parent compound remaining upon incubation: 65%
[6]; 0 h
  % Parent compound remaining upon incubation: 100%
[6]; 0.25 h
  % Parent compound remaining upon incubation: 89%
[6]; 0.5 h
  % Parent compound remaining upon incubation: 83%
[6]; 1 h
  % Parent compound remaining upon incubation: 91%

## COc1ccc(Cn2c(=O)c3cc(Cl)ccc3n(Cc3ccc(C(F)(F)F)cc3)c2=O)cc1 [compound 9, 6-Chloro-1-(4-(trifluoromethyl)benzyl)-3-(4-methoxybenzyl)quinazolin-2,4(1H,3H)-dione]
[1]; 0 h
  % Parent compound remaining upon incubation: 100%
[1]; 0.25 h
  % Parent compound remaining upon incubation: 91%
[1]; 0.5 h
  % Parent compound remaining upon incubation: 51%
[1]; 1 h
  % Parent compound remaining upon incubation: 44%
[2]; [7]
  killing at 5 µM: 0%
[2]; [8]
  killing at 10 µM: 0%
[2]; [9]
  killing at 25 µM: 0%
[2]; [10]
  killing at 50 µM: 29%
[2]; [11]
  killing at 50 µM: 88%
[2]; [12]
  killing at 100 µM: 100%
[2]; [13]
  killing at 100 µM: 100%
[2]; [14]
  EC50: 47 µM
[2]; [15]
  EC50: 49 µM
[2]; [16]
  EC50: 41 µM
[2]; 5 µM
  Worm killing (female worms): 0
  Worm killing (male worms): 0
[2]; 10 µM
  Worm killing (female worms): 0
  Worm killing (male worms): 0
[2]; 25 µM
  Worm killing (female worms): 0
  Worm killing (male worms): 0
[2]; 50 µM
  Worm killing (female worms): 75
  Worm killing (male worms): 100
[2]; 100 µM
  Worm killing (female worms): 100
  Worm killing (male worms): 100
[3]; 5 µM, dose-titration (Table 3)
  Uncoupling: No
  inhibition at 5 µM: 67%
[3]; [17]
  Uncoupling: No
  inhibition at 10 µM: 73%
[3]; [18]
  Uncoupling: Yes
  inhibition at 25 µM: 100%
[3]; [19]
  Reduction in number of eggs (%): 100%
  Uncoupling: Yes
[3]; 50 µM, initial test (Table 2)
  Uncoupling: Yes
  inhibition at 50 µM: 100%
[3]; [20]
  Reduction in number of eggs (%): 100%
  Uncoupling: Yes
[3]; 100 µM, initial test (Table 2)
  Uncoupling: Yes
  inhibition at 100 µM: 100%
[4]; 0 h
  % Parent compound remaining upon incubation: 100%
[4]; 0.25 h
  % Parent compound remaining upon incubation: 94%
[4]; 0.5 h
  % Parent compound remaining upon incubation: 95%
[4]; 1 h
  % Parent compound remaining upon incubation: 97%
[5]; 0 h
  % Parent compound remaining upon incubation: 100%
[5]; 0.25 h
  % Parent compound remaining upon incubation: 104%
[5]; 0.5 h
  % Parent compound remaining upon incubation: 61%
[5]; 1 h
  % Parent compound remaining upon incubation: 67%
[6]; 0 h
  % Parent compound remaining upon incubation: 100%
[6]; 0.25 h
  % Parent compound remaining upon incubation: 101%
[6]; 0.5 h
  % Parent compound remaining upon incubation: 103%
[6]; 1 h
  % Parent compound remaining upon incubation: 105%
